The values that follow come from PMC6149819, “Domain IV of Annexin A5 Is Critical for Binding Calcium and Guarantees Its Maximum Binding to the Phosphatidylserine Membrane” (Molecules : A Journal of Synthetic Chemistry and Natural …, 2017).

For experiment [1], the target named is T1, ctA5 (C-terminal truncated anxA5, lacking domain IV) (Homo sapiens, UniProt P08758, DEL255-320).
T1 construct: domain IV (last 66 residues) deleted; reverse primer ends at AYLAET; non-fusion protein released by SspDnaB intein self-cleavage, His6-CBD-intein removed; E. coli BL21(DE3); initiator Met absent
T1 sequence (P08758 2-254): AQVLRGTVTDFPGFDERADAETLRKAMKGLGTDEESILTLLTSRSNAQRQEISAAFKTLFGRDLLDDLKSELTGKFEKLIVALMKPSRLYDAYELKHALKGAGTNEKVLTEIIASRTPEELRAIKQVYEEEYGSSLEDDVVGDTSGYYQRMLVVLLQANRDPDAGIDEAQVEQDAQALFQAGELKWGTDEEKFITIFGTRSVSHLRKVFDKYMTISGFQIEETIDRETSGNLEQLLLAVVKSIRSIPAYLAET
Nature of the experiment: isothermal titration calorimetry, one-site model. Type of experiment: binding. The text has this: isothermal titration calorimetry, one-site model on ctA5 (C-terminal truncated anxA5, lacking domain IV)
In general terms: ITC needs no label: the signal is the heat of the interaction.

For a further experiment, the target named is T2, wtA5 (wild-type anxA5) (Homo sapiens, UniProt P08758).
T2 construct: non-fusion protein released by SspDnaB intein self-cleavage, His6-CBD-intein removed; E. coli BL21(DE3); forward primer encodes AQVLRG directly after the intein (initiator Met absent)
T2 sequence (P08758 2-320): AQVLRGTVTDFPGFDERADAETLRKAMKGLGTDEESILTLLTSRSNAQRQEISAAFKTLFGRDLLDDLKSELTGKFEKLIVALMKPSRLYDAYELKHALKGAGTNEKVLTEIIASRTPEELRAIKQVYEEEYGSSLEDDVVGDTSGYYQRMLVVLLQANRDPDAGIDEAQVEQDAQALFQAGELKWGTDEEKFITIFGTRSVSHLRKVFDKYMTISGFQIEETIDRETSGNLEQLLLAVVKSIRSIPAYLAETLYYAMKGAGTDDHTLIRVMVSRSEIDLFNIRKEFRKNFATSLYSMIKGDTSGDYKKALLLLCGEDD
The experiment can be described thus: isothermal titration calorimetry, one-site model. Type of experiment: binding. The text has this:
isothermal titration calorimetry, one-site model on wtA5 (wild-type anxA5)

For orientation: Kd means the constant that tells how readily two partners part at equilibrium. High values mean weaker binding, low ones tighter binding. Turning to `CCCCCCCC/C=C\CCCCCCCC(=O)O[C@H](COC(=O)CCCCCCCCCCCCCCC)COP(=O)(O)OC[C@H](N)C(=O)O` [POPS], the Kd in experiment [1] was determined as 158 ± 15.4 µM; at wtA5 (wild-type anxA5), 55.9 ± 6.8 µM.
